Patent publication US20230167497A1, “METHODS OF IDENTIFYING MODULATORS OF THE IL-17 PATHWAY” (Janssen Pharmaceutica NV, priority 2020, published 2023)

Legend:
[1] = tested on: rhIL-17A stimulated G-CSF production in normal human keratinocytes (NHK); assay: NHK G-CSF assay with rhIL-17A stimulation; format: cell-based; details: for inhibition of IL-17 stimulated G-CSF production: concentrations tested, FIGS. 2A and 2C; for dose dependent G-CSF levels: various doses, FIG. 3
[2] = tested on: IL-β secretion by LPS stimulated hPBMCs; details: Wadsworth et al. 1999, read-out: IC50 (Literature), inhibition of IL-β secretion; cited from earlier work
[3] = tested on: TNFa secretion by LPS stimulated hPBMCs; details: Wadsworth et al. 1999, read-out: IC50 (Literature), inhibition of TNFa secretion; cited from earlier work
[4] = tested on: IL-17A-stimulated gene panel in NHKs; assay: QuantiGene Plex gene panel expression, NHK stimulated with recombinant IL-17A; format: cell-based, human; details: NHKs stimulated with recombinant IL-17A, FIGS. 5A and 5B
Procedure: (§1) A panel of IL-17A-stimulated genes was identified, initially through microarray experiments and later confirmed by RT-PCR, to assess modulators of the IL-17 pathway as shown in Table 2. Expression levels of the genes in the panel were measured using QuantiGene® Plex Gene Expression assay in human keratinocytes treated with human recombinant IL-17A and compounds as described in Example 1.
After the 24 hour incubation with IL-17A with and without compounds, 50 μl Lysis buffer (QuantiGene, ThermoFisher) was added to each well containing 100 μl cells. The plate was covered and incubated for 30 minutes in a VorTemp set at 50-55° C., 170 rpm to lyse the cells. The plate was then kept frozen at −80° C. On the day of QuantiGene experiments, samples and reagents were prepared and assay was conducted according the manufacturer's protocol (QuantiGene, ThermoFisher). At the final step, the sample plate was read on a Luminex MagPix® instrument (Luminex; Austin, Tex.) for fluorescent intensity signals.
The raw expression value of a given gene (g) in a sample (S) was quantified as the median of raw fluorescent intensity of the corresponding probe. Normalization factor of each sample S was determined by the raw expression of four housekeeping genes, ACTB, GAPDH, HPRT1, and PPIB, as the ratio of the geometric mean (geomean) of the four housekeeping genes in sample S vs. the geomean of the four housekeeping genes among all samples. The normalized expression value of each gene in sample S was further quantified as the raw expression value divided by the normalization factor in sample S.
Changes in expression of gene g in keratinocytes in response to IL-17A stimulation was calculated as the ratio of the geomean of its normalized expression values in IL-17A stimulated samples vs. that in unstimulated samples. For each gene g, the relative expression value in sample S (Rel_Exp_S) was further determined by its normalized expression in sample S (Norm_Exp_S) and the geomeans of its normalized expression in IL-17A stimulated samples (GM_Norm_Exp_Stim) and unstimulated samples (GMNorm_Exp_UnStim), using formula as: Rel_Exp_S=(Norm_Exp_S−GM_Norm_Exp_UnStim)/(GM_Norm_Exp_Stim−GM_Norm_Exp_UnStim).

[5] = tested on: normal human keratinocytes (NHK); assay: CellTiter-Glo Luminescent Cell Viability Assay of NHK cells; format: cell-based; details: FIG. 2B
Procedure: To test whether treatment with IL-17 or compounds affected cell viability, cells were tested with CellTiter-Glo® Luminescent Cell Viability Assay (Promega; Madison, Wis.) according to manufacturer's protocol.
The substrate vial and the buffer solution were equilibrated at room temperature before reconstitution. The lyophilized substrate solution was reconstituted by adding the appropriate volume of buffer to the substrate vial. After brief mixing, equal volumes of the reconstituted reagent were added to the volume of media in each well of the plate containing cells. The plate was shaken briefly to mix and incubated at room temperature for 10 minutes then luminescent signal was read using an Envision plate reader.
Percent cell viability was calculated as:
% viability=((Sample RLU/No stimulation Avg,RLU)*100).

[6] = tested on: Th17 conditioned media stimulated G-CSF production in normal human keratinocytes (NHK); assay: NHK G-CSF assay with Th17 conditioned media stimulation; format: cell-based; details: for inhibition of G-CSF production: NHK, Th17 conditioned media, FIG. 4A; for IC50: Th17 conditioned media stimulated NHK (footnote 15)
Procedure: In order to test potential modulators of the IL-17 pathway, normal human keratinocytes (NHK) were incubated with either recombinant IL-17A or Th17 conditioned media and potential inhibitor compounds, and then levels of granulocyte colony-stimulating factor (G-CSF) in the cell supernatant were measured as described in detail below.
Peripheral blood mononuclear cells (PBMCs) were isolated from human whole blood using Ficoll-Paque density gradient centrifugation (Ficoll-Paque, GE, 17-1440-03) using SepMate tubes (StemCell technologies, 85450). […] CD4+ T cells were isolated through manual magnetic labeling and cell separation (LS column, Miltenyi Biotec, 130-042-401) following vendor protocol (Miltenyi Biotec, 130 533). CD4+ T cells were seeded on 24-well plates at 2×10^6 cells/mL in 500 μL of RPMI Media (RPMI 1640, Hyclone, SH30096.01) supplemented with 10% FBS, penicillin-streptomycin (Sigma, P0781-100 ml), L-glutamine (Sigma, G7513-100ML), and 2-Mercaptoethanol (Gibco, 21985-023). Th17 polarization media was prepared in RPMI media and 250 μL was added to each well at a final concentration of: anti-CD3/anti-CD28 beads, prepared using T cell activation/expansion kit (Miltenyi Biotec, 130-091-441), at 2× cell number per well, anti-human interleukin-4 (IL-4) [10 ug/mL], anti-human interferon gamma (IFNγ) [10 ug/mL] antibodies (ThermoFisher, 16-7048-85, 16-7318-85), human IL-2 [60 U/mL] (Pepro Tech, 200-02), human IL-1β [10 ng/mL], human IL-23 [10 ng/mL], human IL-6 [50 ng/mL], and human TGFβ [12 ng/mL] (R&D Systems, 201-LB-010, 1290-IL-010, 206-IL-010, 240-B-010). […] The level of human IL-17A in Th17 conditioned media was determined using DuoSet ELISA kits following the vendor protocol (R&D Systems, DY317-05, DY5194-05, DY1335B-05). Human IL-17A was detected in Th17 conditioned media, while unstimulated, undifferentiated CD4+ T cells had no detectable level of IL-17A in the supernatant (FIG. 1). […]
After overnight culture, cell supernatant was carefully collected for G-CSF detection, and cells were further analyzed for viability or gene expression
G-CSF levels were measured using the Human G-CSF Homogeneous Time Resolved Fluorescence (HTRF) Assay kit (Cisbio, Cat. No. 63ADK055PEB1; Codolet, France) according to the manufacturer's protocol. G-CSF is detected in a sandwich assay format using different specific antibodies, one labeled with Eu3+-Cryptate (donor) and the second with d2 (acceptor). When the dyes are in close proximity, the excitation of the donor with a light source (laser or flash lamp) triggers a Fluorescence Resonance Energy Transfer (FRET) towards the acceptor, which in turn fluoresces at a specific wavelength (665 nm). […]

[7] = tested on: Th17 conditioned media stimulated gene panel in NHKs; assay: QuantiGene Plex gene panel expression, NHK stimulated with Th17 conditioned media; format: cell-based, human; details: FIG. 6
Procedure: Peripheral blood mononuclear cells (PBMCs) were isolated from human whole blood using Ficoll-Paque density gradient centrifugation (Ficoll-Paque, GE, 17-1440-03) using SepMate tubes (StemCell technologies, 85450). […] CD4+ T cells were isolated through manual magnetic labeling and cell separation (LS column, Miltenyi Biotec, 130-042-401) following vendor protocol (Miltenyi Biotec, 130 533). CD4+ T cells were seeded on 24-well plates at 2×10^6 cells/mL in 500 μL of RPMI Media (RPMI 1640, Hyclone, SH30096.01) supplemented with 10% FBS, penicillin-streptomycin (Sigma, P0781-100 ml), L-glutamine (Sigma, G7513-100ML), and 2-Mercaptoethanol (Gibco, 21985-023). […] The level of human IL-17A in Th17 conditioned media was determined using DuoSet ELISA kits following the vendor protocol (R&D Systems, DY317-05, DY5194-05, DY1335B-05). Human IL-17A was detected in Th17 conditioned media, while unstimulated, undifferentiated CD4+ T cells had no detectable level of IL-17A in the supernatant (FIG. 1).
as §1, with “1. […]” for “1.”

[8] = Homo sapiens, Keratinocyte, rhIL-17A stimulated NHK assay (footnote 14), 5 ng/ml rhIL-17A
[9] = rhIL-17A stimulated NHK assay (footnote 14), 5 ng/ml rhIL-17A

## Cc1nonc1C(=O)N[C@H](c1cn2ncc([C@H](NC(=O)CCC(F)(F)F)C3CC3)cc2n1)C1CCC(F)(F)CC1 (stereo in doubt) [IL-17Ai-3]
[1]; [8]
  IC50: 72.8 nM

## O=C(CCC(F)(F)F)N[C@@H](c1ccn2cc([C@@H](NC(=O)c3conc3CCC(F)(F)F)C3CCC(F)(F)CC3)nc2n1)C1CC1 [IL-17Ai-5]
[1]; [8]
  IC50: 86.2 nM

## OCCC#Cc1nc(-c2ccc(F)cc2)c(-c2ccncc2)n1CCCc1ccccc1 [Modulator P38i, RWJ 67657]
[2]
  IC50: 11 nM
[3]
  IC50: 3 nM
[4]
  expression of the gene panel: did not lead to an overall reduction in expression of the gene panel
[1]; NHK, rhIL-17A
  inhibition of IL-17 stimulated G-CSF production: did not inhibit
  dose dependent G-CSF levels: does not inhibit G-CSF levels

## Cc1nc(Nc2n[nH]c3c2CN(C(=O)N[C@H](CN(C)C)c2ccccc2)C3(C)C)c2sccc2n1 [PAKi, PF-3758309]
[5]; highest dose of 20 μM
  cell toxicity: toxic to the cells
[5]; tested concentrations other than 20 μM PAK inhibitor
  cell toxicity: well tolerated
[4]
  expression of the gene panel: did not lead to an overall reduction in expression of the gene panel
[1]; Homo sapiens, Keratinocyte
  IC50: 2270 nM
[1]; NHK, rhIL-17A
  inhibition of IL-17 stimulated G-CSF production: did not inhibit
  dose dependent G-CSF levels: some dose-dependent inhibition of G-CSF production with much lower potency compared to IL-17A inhibitors
[1]; NHK, rhIL-17A, highest dose of 20 μM
  G-CSF production: reduced G-CSF production

## Brodalumab
[6]
  inhibition of G-CSF production: inhibited G-CSF production
  IC50: 0.082 nM
[4]
  expression of the gene panel: inhibited expression of the gene panel in a dose-dependent manner
[7]
  expression of the gene panel: inhibited expression of the gene panel in a dose-dependent manner
[1]; NHK, rhIL-17A
  inhibition of IL-17 stimulated G-CSF production: inhibited G-CSF production at all concentrations tested
[1]; [9]
  IC50: 0.07 nM

## Secukinumab
[6]
  inhibition of G-CSF production: inhibited G-CSF production
  IC50: 0.2 nM
[4]
  expression of the gene panel: inhibited expression of the gene panel in a dose-dependent manner
[7]
  expression of the gene panel: inhibited expression of the gene panel in a dose-dependent manner
[1]; NHK, rhIL-17A
  inhibition of IL-17 stimulated G-CSF production: inhibited G-CSF production at all concentrations tested
[1]; [9]
  IC50: 0.2 nM
